According to US20220031684A1, “PROPHYLACTIC EFFICACY OF SEROTONIN 4 RECEPTOR AGONISTS AGAINST STRESS” (THE TRUSTEES OF COLUMBIA UNIVERSITY IN THE CITY OF NEW YORK, priority 2019, published 2022):

Assays:
Assay type in all cases: in vivo
[1] = system: 129S6/SvEv mice; assay: Open field (OF) after CFC
Method: This chronic CORT elevation dysregulates the hypothalamic-pituitary-adrenal axis (HPA) in a manner similar to that observed in clinical depression. The dose and duration of CORT treatment was selected based on previous studies. CORT (35 μg/ml, equivalent to about 5 mg/kg/day) dissolved in 0.45% hydroxypropyl-o-cyclodextrin (0-CD) or vehicle (VEH) (0.45% j-CD) was available ad libitum in the drinking water in opaque bottles to protect it from light. VEH- and CORT-treated water was changed every 3 days to prevent possible degradation. Contextual Fear Conditioning (CFC): A 3-shock CFC procedure was administered as previously published. Briefly, mice were placed into context A and administered 3 2-s shocks (0.75 mA) at 180 s, 240 s or 300 s following placement into context A. Mice were removed from the context 15 s following the termination of shock (at 317 s). For context retrieval, mice were placed back into context A for 300 s. Electrophysiology: Electrophysiology was conducted as previously described. Statistical Analysis: Results from data analyses are expressed as means±SEM. Alpha was set to 0.05 for all analyses. Data were analyzed using GraphPad Prism v7.0 or v8.0. For all experiments, unless otherwise noted, one- or two-way ANOVAs with repeated-measures were applied to the data as appropriate. Significant main effects and/or interactions were followed by Fisher's PLSD post hoc analysis or unpaired t-tests. Drugs: All drugs were prepared in physiological saline and all injections were administered intraperitoneally (i.p.) in volumes of 0.1 cc per […] body weight unless otherwise noted. Fluoxetine hydrochloride (Flx): Flx (BioTrend Chemicals AG, BG197, Zurich, Germany) was administered in the drinking water (18 mg/kg/day) for 3 weeks before the start of CORT. […] (R,S)-ketamine (K): (R,S)-ketamine (Ketaset III, Ketamine HCl injection, Fort Dodge Animal Health, Fort Dodge, Iowa) was administered in a single dose at 30 mg/kg of body weight 1 week before the start of CFC. […] Videos were scored using ANY-maze behavior tracking software (Stoelting, Wood Dale, Ill.). […]

[2] = system: C57BL/6NTac mice; assay: Sucrose splash test (ST) in CORT model; conditions: male C57BL/6NTac; Flx 18 mg/kg/day or RS-67,333 1.5 mg/kg/day for 3 weeks prior to CORT
Method: This chronic CORT elevation dysregulates the hypothalamic-pituitary-adrenal axis (HPA) in a manner similar to that observed in clinical depression. The dose and duration of CORT treatment was selected based on previous studies. CORT (35 μg/ml, equivalent to about 5 mg/kg/day) dissolved in 0.45% hydroxypropyl-o-cyclodextrin (0-CD) or vehicle (VEH) (0.45% j-CD) was available ad libitum in the drinking water in opaque bottles to protect it from light. VEH- and CORT-treated water was changed every 3 days to prevent possible degradation. Contextual Fear Conditioning (CFC): A 3-shock CFC procedure was administered as previously published. Briefly, mice were placed into context A and administered 3 2-s shocks (0.75 mA) at 180 s, 240 s or 300 s following placement into context A. Mice were removed from the context 15 s following the termination of shock (at 317 s). For context retrieval, mice were placed back into context A for 300 s. Electrophysiology: Electrophysiology was conducted as previously described. Statistical Analysis: Results from data analyses are expressed as means±SEM. Alpha was set to 0.05 for all analyses. Data were analyzed using GraphPad Prism v7.0 or v8.0. For all experiments, unless otherwise noted, one- or two-way ANOVAs with repeated-measures were applied to the data as appropriate. […] Videos were scored using ANY-maze behavior tracking software (Stoelting, Wood Dale, Ill.). […]

[3] = system: C57BL/6NTac mice; assay: Elevated plus maze (EPM) in CORT model; conditions: male C57BL/6NTac; Flx 18 mg/kg/day or RS-67,333 1.5 mg/kg/day for 3 weeks prior to CORT
Method: This chronic CORT elevation dysregulates the hypothalamic-pituitary-adrenal axis (HPA) in a manner similar to that observed in clinical depression. The dose and duration of CORT treatment was selected based on previous studies. CORT (35 μg/ml, equivalent to about 5 mg/kg/day) dissolved in 0.45% hydroxypropyl-o-cyclodextrin (0-CD) or vehicle (VEH) (0.45% j-CD) was available ad libitum in the drinking water in opaque bottles to protect it from light. VEH- and CORT-treated water was changed every 3 days to prevent possible degradation. Contextual Fear Conditioning (CFC): A 3-shock CFC procedure was administered as previously published. Briefly, mice were placed into context A and administered 3 2-s shocks (0.75 mA) at 180 s, 240 s or 300 s following placement into context A. Mice were removed from the context 15 s following the termination of shock (at 317 s). For context retrieval, mice were placed back into context A for 300 s. Electrophysiology: Electrophysiology was conducted as previously described. Statistical Analysis: Results from data analyses are expressed as means±SEM. Alpha was set to 0.05 for all analyses. Data were analyzed using GraphPad Prism v7.0 or v8.0. For all experiments, unless otherwise noted, one- or two-way ANOVAs with repeated-measures were applied to the data as appropriate. Significant main effects and/or interactions were followed by Fisher's PLSD post hoc analysis or unpaired t-tests. Drugs: All drugs were prepared in physiological saline and all injections were administered intraperitoneally (i.p.) in volumes of 0.1 cc per […] body weight unless otherwise noted. Fluoxetine hydrochloride (Flx): Flx (BioTrend Chemicals AG, BG197, Zurich, Germany) was administered in the drinking water (18 mg/kg/day) for 3 weeks before the start of CORT. […] (R,S)-ketamine (K): (R,S)-ketamine (Ketaset III, Ketamine HCl injection, Fort Dodge Animal Health, Fort Dodge, Iowa) was administered in a single dose at 30 mg/kg of body weight 1 week before the start of CFC. […] PF-04995274: PF-04995274 (Sigma, Catalog No. 1331782-27-4, St. Louis, Mo.) was administered a single dose at 3 or 10 mg/kg of body weight 1 week before the start of CFC. PF-04995274 was dissolved in saline using an ultrasonic homogenizer (BioLogics, Model 3000, Manassas, Va.). Osmotic minipump implantation: ALZET osmotic minipumps (Model 2004, […], 28 days) were implanted subcutaneously under isoflurane anesthesia as previously described [S2]. Osmotic minipumps were rotated under the skin two to three times per week. Behavioral Assays: All experiments were approved by the Institutional Animal Care and Use Committee (IACUC) at the New York Psychiatric Institute (NYSPI). […] Videos were scored using ANY-maze behavior tracking software (Stoelting, Wood Dale, Ill.). […]

[4] = system: 129S6/SvEv mice; assay: 3-shock contextual fear conditioning (CFC); conditions: for p value, CFC Re-exposure Average Freezing (%), Fisher's LSD: FIG. 2D
Method: This chronic CORT elevation dysregulates the hypothalamic-pituitary-adrenal axis (HPA) in a manner similar to that observed in clinical depression. The dose and duration of CORT treatment was selected based on previous studies. CORT (35 μg/ml, equivalent to about 5 mg/kg/day) dissolved in 0.45% hydroxypropyl-o-cyclodextrin (0-CD) or vehicle (VEH) (0.45% j-CD) was available ad libitum in the drinking water in opaque bottles to protect it from light. VEH- and CORT-treated water was changed every 3 days to prevent possible degradation. Contextual Fear Conditioning (CFC): A 3-shock CFC procedure was administered as previously published. Briefly, mice were placed into context A and administered 3 2-s shocks (0.75 mA) at 180 s, 240 s or 300 s following placement into context A. Mice were removed from the context 15 s following the termination of shock (at 317 s). For context retrieval, mice were placed back into context A for 300 s. Electrophysiology: Electrophysiology was conducted as previously described. Statistical Analysis: Results from data analyses are expressed as means±SEM. Alpha was set to 0.05 for all analyses. Data were analyzed using GraphPad Prism v7.0 or v8.0. For all experiments, unless otherwise noted, one- or two-way ANOVAs with repeated-measures were applied to the data as appropriate. Significant main effects and/or interactions were followed by Fisher's PLSD post hoc analysis or unpaired t-tests. Drugs: All drugs were prepared in physiological saline and all injections were administered intraperitoneally (i.p.) in volumes of 0.1 cc per […] body weight unless otherwise noted. Fluoxetine hydrochloride (Flx): Flx (BioTrend Chemicals AG, BG197, Zurich, Germany) was administered in the drinking water (18 mg/kg/day) for 3 weeks before the start of CORT. […] (R,S)-ketamine (K): (R,S)-ketamine (Ketaset III, Ketamine HCl injection, Fort Dodge Animal Health, Fort Dodge, Iowa) was administered in a single dose at 30 mg/kg of body weight 1 week before the start of CFC. […] PF-04995274: PF-04995274 (Sigma, Catalog No. 1331782-27-4, St. Louis, Mo.) was administered a single dose at 3 or 10 mg/kg of body weight 1 week before the start of CFC. PF-04995274 was dissolved in saline using an ultrasonic homogenizer (BioLogics, Model 3000, Manassas, Va.). Osmotic minipump implantation: ALZET osmotic minipumps (Model 2004, […], 28 days) were implanted subcutaneously under isoflurane anesthesia as previously described [S2]. Osmotic minipumps were rotated under the skin two to three times per week. Behavioral Assays: All experiments were approved by the Institutional Animal Care and Use Committee (IACUC) at the New York Psychiatric Institute (NYSPI). Elevated Plus Maze (EPM): Testing was performed as previously described [S3]. Briefly, the maze is a plus-cross-shaped apparatus consisting of four arms, two open and two enclosed by walls, linked by a central platform at a height of 50 cm from the floor. Mice were individually placed in the center of the maze facing an open arm and were allowed to explore the maze for 5 min. The time spent in and the number of entries into the open arms was used as an anxiety index. Videos were scored using ANY-maze behavior tracking software (Stoelting, Wood Dale, Ill.). Novelty-Suppressed Feeding: The NSF is a conflict test that elicits competing motivations: the drive to eat and the fear of venturing into the center of a brightly lit arena. The latency to feed is used as an index of anxiety-like behavior, because classical anxiolytic drugs decrease this measure. The NSF test was carried out during an 8 min period as previously described [S3]. Briefly, the testing apparatus consisted of a plastic box (50×50×20 cm), the floor of which was covered with approximately 2 cm of bedding. For 129S6/SvEv experiments, mice were food restricted for 12 h. For the C57BL/6N experiments, mice were food restricted for 24 h. […]

[5] = FIG. 3 Acute RS67333 cohort, FIG. 3B, Fisher's PLSD

## CCCCN1CCC(CCC(=O)c2cc(Cl)c(N)cc2OC)CC1.Cl [RS-67,333, 1-(4-amino-5-chloro-2-methoxyphenyl)-3-[1(n-butyl)-4-piperidinyl]-1-propanone HCl]
[1]; FIG. 2I, t-test
  p, OF Time in Center, Saline vs. RS67333 (10 mg/kg): 0.2475
[1]; female 129S6/SvEv, 1.5 or 10 mg/kg
  time spent in the center of the OF: did not alter
[1]; male 129S6/SvEv, 10 mg/kg
  time in the center of the OF arena vs saline: comparable amount of time
[2]
  grooming duration (ST) vs CORT+Veh: increased grooming duration
[3]
  entries into the open arms of the EPM vs CORT+Veh: significantly more entries
  time spent in the open arms of the EPM vs VEH+Veh: did not alter
[4]; RS67333 (1.5 mg/kg) vs. (second group beyond the rows shown)
  p value, CFC Re-exposure Average Freezing (%), Fisher's LSD: 0.3259
[4]; RS67333 (1.5 mg/kg) vs. RS67333 (10 mg/kg)
  p value, CFC Re-exposure Average Freezing (%), Fisher's LSD: 0.8278
[4]; Saline vs. RS67333 (1.5 mg/kg)
  p value, CFC Re-exposure Average Freezing (%), Fisher's LSD: 0.0185
[4]; Saline vs. RS67333 (10 mg/kg)
  p value, CFC Re-exposure Average Freezing (%), Fisher's LSD: 0.0006
[4]; Saline vs. RS67333 (30 mg/kg)
  p value, CFC Re-exposure Average Freezing (%), Fisher's LSD: 0.2625
[4]; FIG. 2 cohort, post-hoc comparison, measurement head lies above the shown rows (block before FST)
  p, RS67333 (10 mg/kg) vs. RS67333 (30 mg/kg): 0.3050
[4]; [5]
  p, CFC Trainging Freezing (%), RS67333 (1.5 mg/kg) vs. RS67333 (10 mg/kg): 0.3858
  p, CFC Trainging Freezing (%), Saline vs. RS67333 (1.5 mg/kg): 0.0941
  p, CFC Trainging Freezing (%), Saline vs. RS67333 (10 mg/kg): 0.0076
[4]; FIG. 3 cohort, Fisher's PLSD
  p, CFC Training Freezing (min 1), RS67333 (1.5 mg/kg) vs. RS67333 (10 mg/kg): 0.9715
  p, CFC Training Freezing (min 1), Saline vs. RS67333 (1.5 mg/kg): 0.8847
